Common to all, as to test: relative viability (nuclei count vs DMSO), 5 days (fraction); higher = more cells survive
Compound in the assay “Obatoclax + Pictilisib”: COC1=CC(c2cc3ccccc3[nH]2)=N/C1=C\c1[nH]c(C)cc1C [Obatoclax] + CS(=O)(=O)N1CCN(Cc2cc3nc(-c4cccc5[nH]ncc45)nc(N4CCOCC4)c3s2)CC1 [Pictilisib] (partner 1 µM)
A digest of the protocol: (§1)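 Dosing by pin tool came one day after lung cancer cell lines were seeded in 1536-well plates, using either one drug or a fixed anchor-drug dose plus five library-drug doses (not always all listed) in √10 steps. After 5 days, nuclei were counted on 4× images. Relative viability is treated-well nuclei count divided by vehicle-well nuclei count, and values are medians of duplicate plates.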

Compound in the assay “Bortezomib + Foretinib”: CC(C)C[C@H](NC(=O)[C@H](Cc1ccccc1)NC(=O)c1cnccn1)B(O)O [Bortezomib] + COc1cc2c(Oc3ccc(NC(=O)C4(C(=O)Nc5ccc(F)cc5)CC4)cc3F)ccnc2cc1OCCCN1CCOCC1 [Foretinib] (partner 0.25 µM)
Summed up: as §1

Compound in the assay “Bortezomib + Alpelisib”: CC(C)C[C@H](NC(=O)[C@H](Cc1ccccc1)NC(=O)c1cnccn1)B(O)O [Bortezomib] + Cc1nc(NC(=O)N2CCC[C@H]2C(N)=O)sc1-c1ccnc(C(C)(C)C(F)(F)F)c1 [Alpelisib] (partner 2 µM)
A digest of the protocol: as §1

Compound in assay [1]: CC1=CC(=NN1)NC2=CC(=NC(=N2)/C=C/C3=CC=CC=C3)N4CCN(CC4)C + CC(=O)Nc1cccc(-n2c(=O)n(C3CC3)c(=O)c3c(Nc4ccc(I)cc4F)n(C)c(=O)c(C)c32)c1 [Trametinib] (partner 0.02 µM)
A digest of the protocol: as §1

Drawing on the supplement of paper PMC10307832, this text covers relative viability for one cell line.

As for NCI-H650, the relative viability came to 0.812 with Obatoclax + Pictilisib (first compound 0.01 µM); 0.722 with Obatoclax + Pictilisib (first compound 0.03162 µM); 0.597 with Obatoclax + Pictilisib (first compound 0.1 µM); 0.462 with Obatoclax + Pictilisib (first compound 0.3162 µM); 0.333 with Obatoclax + Pictilisib (first compound 1 µM); 1.08 with Bortezomib + Foretinib (first compound 0.000632 µM). The relative viability amounted to 0.847 in the assay with Bortezomib + Foretinib (first compound 0.002 µM); 0.4 in the assay with Bortezomib + Foretinib (first compound 0.006325 µM); 0.173 with Bortezomib + Foretinib (first compound 0.02 µM); 1.18 in the assay with Bortezomib + Alpelisib (first compound 0.000632 µM); 0.819 with Bortezomib + Alpelisib (first compound 0.002 µM); 0.355 with Bortezomib + Alpelisib (first compound 0.006325 µM). Moreover, the relative viability with Bortezomib + Alpelisib (first compound 0.02 µM) came out at 0.182; in assay [1] (first compound 0.08 µM), 0.891; in assay [1] (first compound 0.253 µM), 0.706; in assay [1] (first compound 0.8 µM) it was 0.907; in assay [1] (first compound 2.53 µM) it was 0.627; in assay [1] (first compound 8 µM), 0.166.
